Reference: PMC3648997 (Bioorganic & medicinal chemistry letters, 2013)
Values belong to the compound of their own block, whether it stands above or below them.

What was measured:
Keap1 Kelch domain = Keap1 Kelch domain (Homo sapiens, UniProt Q14145); assay: SPR solution competition assay; type: binding
Stability over 24 h = settings: over a period of 24 h
Glutathione reactivity = settings: 50 μM glutathione, over 48 h

Keap1 Kelch domain, sequence (Q14145 321-609 limits assumed): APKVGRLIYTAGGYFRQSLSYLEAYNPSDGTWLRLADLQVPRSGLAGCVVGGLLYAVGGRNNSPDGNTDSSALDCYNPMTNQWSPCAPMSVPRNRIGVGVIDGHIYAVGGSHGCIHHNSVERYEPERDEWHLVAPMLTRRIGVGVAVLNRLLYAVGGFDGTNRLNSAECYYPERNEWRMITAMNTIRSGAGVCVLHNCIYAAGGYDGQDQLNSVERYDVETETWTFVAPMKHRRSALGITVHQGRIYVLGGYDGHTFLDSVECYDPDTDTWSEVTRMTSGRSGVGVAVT

Keap1 binding activity (in words) (Keap1 Kelch domain): completely inactive
Structure (SMILES): COC(=O)C1CCCCC1C(=O)N1CCc2ccccc2C1CN1C(=O)c2ccccc2C1=O (centres unmarked) [corresponding methyl ester]

fold less active than (SRS)-5 (Keap1 Kelch domain; relative to (SRS)-5): about 20 fold
Structure (SMILES): NC(=O)C1CCCCC1C(=O)N1CCc2ccccc2C1CN1C(=O)c2ccccc2C1=O (centres unmarked) [corresponding amide]

stability (Stability over 24 h): highly stable
Structure (SMILES): O=C(O)[C@H]1CCCC[C@H]1C(=O)N1CCc2ccccc2[C@H]1CN1C(=O)c2ccccc2C1=O [(SRS)-5]
thiol addition or decomposition (Glutathione reactivity): No thiol addition or decomposition could be detected

Structure (SMILES): O=C(O)C1CCCCC1C(=O)N1CCc2ccccc2C1CN1Cc2ccccc2C1=O (centres unmarked) [lactam]
Keap1 binding activity (in words) (Keap1 Kelch domain): only slight decrease in Keap1 binding
